Reference: patent US6780883B2, “Amide inhibitors of microsomal triglyceride transfer protein” (Warner-Lambert Company, priority 1998, dated 2004)

Experiments:
[1] = target: apolipoprotein(a), [apo(a)], apolipoproteinB-100, [apoB-100], coupling reaction that generates Lp(a) (Homo sapiens, UniProt P04114+P08519); experiment: LPABC screen: lipoprotein(a) biochemical coupling assay, Lp(a) content by ELISA; conditions: recombinant apo(a) 17-kringle (293 cell media) + HepG2 conditioned media, 67 minutes, 37° C., 0.3 to 50 μM compound; read-out: Lp ABC IC50
Protocol: LPABC Screen The lipoprotein(a), [Lp(a)], biochemical coupling assay (LPABC) is used to characterize inhibitors of the apolipoprotein(a), [apo(a)], apolipoproteinB-100, [apoB-100], coupling reaction that generates Lp(a). Conditioned media from 293 cells (ATCC CRL-1573), permanently transfected with an apo(a) 17-kringle cDNA expression construct (pcDNA-AMP, In Vitrogen, Carlsbad, Calif.) using standard molecular biology techniques, was used as a source of recombinant apo(a) is diluted 1:3 with phosphate buffered saline (PBS) and 90 μL is pipetted into each well of a 96-well plate and placed into a 37° C. incubator for 10 minutes. Twenty microliters of a 0.3 to 50 μM solution of a compound of the present invention in PBS is added to the warmed plate. Ninety microliters of HepG2 (ATCC HB-8065) cell conditioned media diluted 1:3 with PBS is added to the apo(a)/compound mixture and mixed by pipetting up and down 5 times. The reaction is incubated for 67 minutes in a 37° C. incubator. A 100 μL aliquot of the reaction is removed and assayed for its Lp(a) content by an enzyme linked immunosorbent assay (ELISA).

[2] = tested on: Lp(a) production in HepG2^K17 cells; experiment: LPA3 screen: inhibition of Lp(a) production in transfected HepG2 cells, Lp(a) in media by ELISA; assay type: cell-based; conditions: Homo sapiens, 8 hours, 0.3 to 50 μM compound, Lp(a) normalized for total protein, read-out: Lp A3 IC50
Protocol: The LPA3 screen is used to identify compounds that inhibit Lp(a) production. This screen employs permanently transfected HepG2 cells (HepG2^K17) that are generated using an apo(a) 17-kringle cDNA expression construct (pcDNA-AMP, In Vitrogen, Carlsbad, Calif.) in accordance with methods that are well-known in molecular biology.
HepG2^K17 cells are seeded in 96-well plates at a density of 75,000 cells per well in 0.25 mL of Dulbecco's Modified Eagle Media (DMEM) containing 10% fetal bovine serum (FBS). Seeded plates are incubated overnight in a 37° C., 5% CO2/95% 02 incubator. The media is removed, replaced with (1) fresh media, or (2) fresh media plus 0.3 to 50 μM of a compound of the present invention in 20 μL of PBS, and the plates returned to the incubator for 8 hours. After the additional 8 hours of incubation, Lp(a) is assayed in the media by ELISA. Cells are digested with 0.5N NaOH overnight and assayed for total protein. Lp(a) values are normalized for total protein content.

Q: With `CC(C)c1ccc(C(=O)N(Cc2ccccc2-c2ccccc2)c2cccnc2)cc1` [Example 72, N-Biphenyl-2-ylmethyl-4-isopropyl-N-pyridin-3-yl-benzamide] as the compound, how does the IC50 [1] read?
A: The IC50 was over 50 µM.

Q: What about the IC50 [2] of the same compound?
A: The IC50 was 37.1 µM.

Q: Which IC50 [1] does the source give for `CCOc1ccccc1C(=O)N(Cc1ccc2c(c1)C(C)(C)CCC2(C)C)c1cccnc1` [Example 73, 2-Ethoxy-N-pyridin-3-yl-N-(5,5,8,8-tetramethyl-5,6,7,8-tetrahydro-naphthalen-2-ylmethyl)-benzamide] here?
A: Its IC50 is over 50 µM.

Q: And the IC50 [2]?
A: Its IC50 is 10 µM.

Q: How did the IC50 [1] turn out when `CCOc1ccccc1C(=O)N(Cc1cc(C(C)(C)C)cc(C(C)(C)C)c1)c1cccnc1` [Example 74, N-(3,5-Di-tert-butyl-benzyl)-2-ethoxy-N-pyridin-3-yl-benzamide] was run?
A: Its IC50 is over 50 µM.

Q: What about the IC50 [2] of the same compound?
A: Its IC50 is 11.6 µM.

Q: For `CCOc1ccccc1C(=O)N(Cc1cc(Br)cc(Br)c1)c1cccnc1` [Example 75, N-(3,5-Dibromo-benzyl)-2-ethoxy-N-pyridin-3-yl-benzamide], which IC50 [1] is on record?
A: The IC50 was over 50 µM.

Q: What about the IC50 [2] of the same compound?
A: Its IC50 is 14.9 µM.

Q: Which IC50 [1] does the source give for `CCOc1ccccc1C(=O)N(Cc1ccc(OC)cc1)c1cccnc1` [Example 76, 2-Ethoxy-N-(4-methoxy-benzyl)-N-pyridin-3-yl-benzamide] here?
A: Its IC50 is over 50 µM.

Q: And the IC50 [2]?
A: Its IC50 is 33.3 µM.

Q: For `CCOc1ccccc1C(=O)N(Cc1cccc(OC)c1)c1cccnc1` [Example 77, 2-Ethoxy-N-(3-methoxy-benzyl)-N-pyridin-3-yl-benzamide], which IC50 [1] is on record?
A: The IC50 was over 50 µM.

Q: And the IC50 [2]?
A: Its IC50 is 44.5 µM.

Q: What does the source list for `CCOc1ccccc1C(=O)N(Cc1ccc(Cl)c(Cl)c1)c1cccnc1` [Example 78, N-(3,4-Dichloro-benzyl)-2-ethoxy-N-pyridin-3-yl-benzamide]?
A: IC50 [1]: > 50 µM; IC50 [2]: 10.3 µM

Q: How did the IC50 [1] turn out when `CCOc1ccccc1C(=O)N(Cc1ccc2ccccc2c1)c1cccnc1` [Example 79, 2-Ethoxy-N-naphthalen-2-ylmethyl-N-pyridin-3-yl-benzamide] was run?
A: Its IC50 is over 50 µM.

Q: And the IC50 [2]?
A: Its IC50 is 17 µM.

Q: `CCOc1ccccc1C(=O)N(Cc1ccc(C(C)(C)C)cc1)c1cccnc1` [Example 80, N-(4-tert-Butyl-benzyl)-2-ethoxy-N-pyridin-3-yl-benzamide] was tested. Which IC50 [1] did it give?
A: Its IC50 is over 50 µM.

Q: What about the IC50 [2] of the same compound?
A: The IC50 was 19.2 µM.

Q: `CCOc1ccccc1C(=O)N(Cc1ccccc1-c1ccccc1)c1cccnc1` [Example 81, N-Biphenyl-2-ylmethyl-2-ethoxy-N-pyridin-3-yl-benzamide] was tested. Which IC50 [1] did it give?
A: Its IC50 is over 50 µM.

Q: What about the IC50 [2] of the same compound?
A: The IC50 was 0.9 µM.

Q: For `CCCCOc1ccc(N(Cc2ccc3c(c2)C(C)(C)CCC3(C)C)C(=O)CN(CC)CC)cn1` [Example 82, N-(6-Butoxy-pyridin-3-yl)-2-diethylamino-N-(5,5,8,8-tetramethyl-5,6,7,8-tetrahydro-naphthalen-2-ylmethyl)-acetamide], which IC50 [1] is on record?
A: The IC50 was over 50 µM.

Q: What about the IC50 [2] of the same compound?
A: Its IC50 is 36.8 µM.

Q: What does the source list for `CCCCOc1ccc(N(Cc2ccc(C(C)(C)C)cc2)C(=O)CN(CC)CC)cn1` [Example 83, N-(6-Butoxy-pyridin-3-yl)-N-(4-tert-butyl-benzyl)-2-diethylamino-acetamide]?
A: IC50 [1]: > 50 µM; IC50 [2]: 34 µM

Q: For `CCCCOc1ccc(N(Cc2ccccc2-c2ccccc2)C(=O)CN(CC)CC)cn1` [Example 84, N-Biphenyl-2-ylmethyl-N-(6-butoxy-pyridin-3-yl)-2-diethylamino-acetamide], which IC50 [1] is on record?
A: Its IC50 is over 50 µM.

Q: What about the IC50 [2] of the same compound?
A: Its IC50 is 43.7 µM.

Q: What does the source list for `COc1ccccc1N(Cc1ccc2ccccc2c1)C(=O)c1ccccc1` [Example 85, N-(2-Methoxy-phenyl)-N-naphthalen-2-ylmethyl-benzamide]?
A: IC50 [1]: > 50 µM; IC50 [2]: 10.2 µM

Q: For `COc1ccc(CN(C(=O)c2ccccc2)c2ccccc2OC)cc1` [Example 86, N-(4-Methoxy-benzyl)-N-(2-methoxy-phenyl)-benzamide], which IC50 [1] is on record?
A: The IC50 was over 50 µM.

Q: And the IC50 [2]?
A: The IC50 was 30.1 µM.

Q: How did the IC50 [1] turn out when `COc1cccc(CN(C(=O)c2ccccc2)c2ccccc2OC)c1` [Example 87, N-(3-Methoxy-benzyl)-N-(2-methoxy-phenyl)-benzamide] was run?
A: Its IC50 is over 50 µM.

Q: And the IC50 [2]?
A: Its IC50 is 19.2 µM.

Q: With `COc1ccccc1N(Cc1ccccc1-c1ccccc1)C(=O)c1ccccc1` [Example 88, N-Biphenyl-2-ylmethyl-N-(2-methoxy-phenyl)-benzamide] as the compound, how does the IC50 [1] read?
A: Its IC50 is over 50 µM.

Q: And the IC50 [2]?
A: The IC50 was 16.5 µM.

Q: What does the source list for `CCN(CC)CCCc1ccc(N(Cc2ccc3c(c2)C(C)(C)CCC3(C)C)C(=O)c2ccccc2)cc1` [Example 89, N-[4-(3-Diethylamino-propyl)-phenyl]-N-(5,5,8,8-tetramethyl-5,6,7,8-tetrahydro-naphthalen-2-ylmethyl)-benzamide]?
A: IC50 [1]: > 50 µM; IC50 [2]: 13.2 µM

Q: For `CCOc1ccccc1C(=O)N(Cc1ccccc1-c1ccccc1)c1ccc(OC)nc1` [Example 90, N-Biphenyl-2-ylmethyl-2-ethoxy-N-(6-methoxy-pyridin-3-yl)-benzamide], which IC50 [1] is on record?
A: Its IC50 is over 50 µM.

Q: What about the IC50 [2] of the same compound?
A: Its IC50 is 31.7 µM.

Q: Which results are given for `COc1ccc(N(Cc2ccccc2-c2ccccc2)C(=O)c2ccccc2OC)cn1` [Example 91, N-Biphenyl-2-ylmethyl-2-methoxy-N-(6-methoxy-pyridin-3-yl)-benzamide]?
A: IC50 [1]: > 50 µM; IC50 [2]: 46.5 µM

Q: For `COc1ccccc1C(=O)N(Cc1cccnc1)Cc1ccccc1-c1ccccc1` [Example 92, N-Biphenyl-2-ylmethyl-2-methoxy-N-pyridin-3-ylmethyl-benzamide], which IC50 [1] is on record?
A: Its IC50 is over 50 µM.

Q: What about the IC50 [2] of the same compound?
A: Its IC50 is 6.3 µM.

Q: For `O=C(c1cc2ccccc2s1)N(Cc1ccccc1-c1ccccc1)c1ccncc1` [Example 93, Benzo[b]thiophene-2-carboxylic acid biphenyl-2-ylmethyl-pyridin-4-yl-amide], which IC50 [1] is on record?
A: The IC50 was over 50 µM.

Q: And the IC50 [2]?
A: Its IC50 is 10.5 µM.

Q: Which results are given for `COc1ccc(N(Cc2ccccc2-c2ccccc2)C(=O)c2ccccc2[N+](=O)[O-])cn1` [Example 94, N-Biphenyl-2-ylmethyl-N-(6-methoxy-pyridin-3-yl)-2-nitro-benzamide]?
A: IC50 [1]: > 50 µM; IC50 [2]: 24.8 µM

Q: `CCOc1ccc(C(=O)N(Cc2ccccc2-c2ccccc2)c2ccc(OC)nc2)cc1` [Example 95, N-Biphenyl-2-ylmethyl-4-ethoxy-N-(6-methoxy-pyridin-3-yl)-benzamide] was tested. Which IC50 [1] did it give?
A: Its IC50 is over 50 µM.

Q: What about the IC50 [2] of the same compound?
A: The IC50 was 11.4 µM.

Q: Which results are given for `CCOc1ccccc1C(=O)N(Cc1cccnc1)Cc1ccccc1-c1ccccc1` [Example 96, N-Biphenyl-2-ylmethyl-2-ethoxy-N-pyridin-3-ylmethyl-benzamide]?
A: IC50 [1]: > 50 µM; IC50 [2]: 7.5 µM

Q: Which IC50 [1] does the source give for `O=C(c1cccc2c1OCO2)N(Cc1cccnc1)Cc1ccccc1-c1ccccc1` [Example 97, Benzo[1,3]dioxole-4-carboxylic acid biphenyl-2-ylmethyl-pyridin-3-ylmethyl-amide] here?
A: The IC50 was over 50 µM.

Q: What about the IC50 [2] of the same compound?
A: The IC50 was 7.8 µM.

Q: How did the IC50 [1] turn out when `O=C(c1ccccc1Br)N(Cc1cccnc1)Cc1ccccc1-c1ccccc1` [Example 98, N-Biphenyl-2-ylmethyl-2-bromo-N-pyridin-3-ylmethyl-benzamide] was run?
A: The IC50 was over 50 µM.

Q: And the IC50 [2]?
A: Its IC50 is 8.5 µM.

Q: How did the IC50 [1] turn out when `O=C(c1sc2ccccc2c1Cl)N(Cc1cccnc1)Cc1ccccc1-c1ccccc1` [Example 99, 3-Chloro-benzo[b]thiophene-2-carboxylic acid biphenyl-2-ylmethyl-pyridin-3-ylmethyl-amide] was run?
A: The IC50 was over 50 µM.

Q: What about the IC50 [2] of the same compound?
A: The IC50 was 24.7 µM.

Q: `O=C(c1ccccc1[N+](=O)[O-])N(Cc1cccnc1)Cc1ccccc1-c1ccccc1` [Example 100, N-Biphenyl-2-ylmethyl-2-nitro-N-pyridin-3-ylmethyl-benzamide] was tested. Which IC50 [1] did it give?
A: Its IC50 is over 50 µM.

Q: What about the IC50 [2] of the same compound?
A: Its IC50 is 45.8 µM.

Q: With `O=C(c1ccccc1OCc1ccccc1)N(Cc1cccnc1)Cc1ccccc1-c1ccccc1` [Example 101, 2-Benzyloxy-N-biphenyl-2-ylmethyl-N-pyridin-3-ylmethyl-benzamide] as the compound, how does the IC50 [1] read?
A: Its IC50 is over 50 µM.

Q: What about the IC50 [2] of the same compound?
A: Its IC50 is 10.8 µM.
